Data reported in US5906918A, “Compositions and methods for measurement of oxidative DNA damage” (Health Research Inc., priority 1997, dated 1999).

Legend:
nuclease P1 [1] = target: T1, nuclease P1 (Penicillium citrinum, UniProt P24289); details: endonucleases such as nuclease P1; Maccubbin et al., 1993; cited from earlier work
T1 sequence (P24289 1-270): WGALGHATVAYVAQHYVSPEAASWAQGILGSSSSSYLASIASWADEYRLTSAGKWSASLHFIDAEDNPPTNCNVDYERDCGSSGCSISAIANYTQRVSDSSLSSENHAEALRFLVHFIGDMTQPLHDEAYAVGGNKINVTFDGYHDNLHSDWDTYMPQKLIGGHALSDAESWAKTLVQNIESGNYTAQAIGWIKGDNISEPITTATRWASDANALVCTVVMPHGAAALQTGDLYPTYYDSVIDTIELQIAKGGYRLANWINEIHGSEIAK

nuclease P1 [2] = target: T1, nuclease P1; assay: Endonuclease (nuclease P1) turnover rate for hydrolysis of modified dinucleoside monophosphates; format: biochemical; details: 6 nmol substrate in 100 μl 60 mM sodium acetate buffer pH 5.3 with zinc chloride, 50 ng nuclease P1, 37° C., HPLC analysis
Description: The endonuclease turnover rate was measured in terms of the number of substrate molecules hydrolyzed per minute per molecule of enzyme. The substrates were modified dinucleoside monophosphates comprising the DNA base modifications illustrated in FIG. 1. The respective unmodified dinucleoside monophosphates were purchased commercially, with the exceptions of d(GpG), d(GpC), d(GpA), and d(GpT) which were prepared using methods previously described (Paul et al., 1988, Int. J. Radiat. Biol. 54:403-415). A solution of each the unmodified dinucleoside monophosphates was X-irradiated, and the corresponding modified dinucleoside monophosphate was isolated by reverse-phase HPLC (see, e.g., Schroder et al., 1995, Int. J. Radiat. Biol. 68:509-23; and Box et al., 1995, In Radiation Damage in DNA, eds. Fuciarelli and Zimbrick, publs. Battelle Press). The one exception to producing modified dinucleoside monophosphates was the production of the DNA base modification thymine glycol. Modified dinucleoside monophosphates bearing the thymine glycol modification were prepared by treating dTpA with osmium tetroxide (see, e.g., Belfi et al., 1986, supra). The DNA base modifications were identified using proton nuclear magnetic resonance spectroscopy (see, e.g., Schroder et al., 1995, Int. J. Radiat. Biol. 68:509-23).
Concentrations of the modified dinucleoside monophosphates were determined spectrophotometrically at 260 nm. The rates of hydrolysis for the modified dinucleoside monophosphates by endonuclease were obtained from measurements of equimolar amounts of the substrate modified dinucleoside monophosphate (6 nmol) in 100 μl of 60 mM sodium acetate buffer (pH 5.3, containing […] zinc chloride). Hydrolysis was initiated by the addition of the endonuclease (50 ng of nuclease P1 in 2 μl buffer) and the reactants were incubated in a 37° C. water bath. At varying times, hydrolysis was terminated by the addition of 15 μl of 1M Tris, and rapid freezing in a liquid nitrogen bath. The products of digestion were analyzed by injecting the digest onto a C-18 reverse phase HPLC column, with elution using a 5%-53% linear gradient of CH3 CN/0.1M ammonium acetate buffer, pH 7.0 at a 1.0 ml/minute flow rate. Moles of protein were calculated from the weight of the material and the known molecular weights for the constituents. The results of the measurement of the endonuclease turnover rates (R, as measured in terms of molecules hydrolyzed per minute per molecule of enzyme) for each of the modified dinucleoside monophosphates tested is illustrated in Table 1.

Nc1ncnc2c1ncn2[C@H]1C[C@H](O)[C@@H](COP(=O)(O)O[C@H]2C[C@H](NC=O)O[C@@H]2CO)O1 [d(T*pA) formamido remnant]
hydrolysis by endonuclease of the phosphoester bond 3' to the modified nucleoside (nuclease P1 [1]): do not hydrolyze | endonuclease turnover rate R (nuclease P1 [2]): no hydrolysis detected

Nc1ccn([C@H]2C[C@H](O)[C@@H](COP(=O)(O)O[C@H]3C[C@H](NC=O)O[C@@H]3CO)O2)c(=O)n1 [d(T*pC) formamido remnant]
endonuclease turnover rate R (nuclease P1 [2]): no hydrolysis detected

Nc1nc2c(ncn2[C@H]2C[C@H](O)[C@@H](COP(=O)(O)O[C@H]3C[C@H](NC=O)O[C@@H]3CO)O2)c(=O)[nH]1 [d(T*pG) formamido remnant]
endonuclease turnover rate R (nuclease P1 [2]): no hydrolysis detected

Cc1cn([C@H]2C[C@H](O)[C@@H](COP(=O)(O)O[C@H]3C[C@H](NC=O)O[C@@H]3CO)O2)c(=O)[nH]c1=O [d(T*pT) formamido remnant]
endonuclease turnover rate R (nuclease P1 [2]): no hydrolysis detected
